This assay concerns radioactive cholesterol. Briefly: Hypocholesterolemic effect: content of radioactive cholesterol in blood of rats after oral gelatine capsule. The format is in vivo. The note with it: male rats, relative to blank group, mean of 10 animals; for Radioactivity After 3 h: blood 3 h after gelatine capsule (5% by weight sterol/ester, 0.5% by weight radioactively marked cholesterol) via stomach probe; for Radioactivity After 6 h: blood 6 h after gelatine capsule via stomach probe; for Radioactivity After 12 h: blood 12 h after gelatine capsule via stomach probe; for Radioactivity After 24 h: blood 24 h after gelatine capsule via stomach probe; for Radioactivity After 48 h: blood 48 h after gelatine capsule via stomach probe. As for the experimental part:
Gelatine capsules (weight ca. 1.5 g) containing 5% by weight β-sitostanol or β-sitostanolester (nanoparticles encapsulated in a gelatine or chitosan matrix and non-nanoscale commercial products) and 0.5% by weight of radioactively marked cholesterol were prepared. To study the hypocholesterolemic effect, male rats (individual weight ca.200 g) were allowed no food overnight. The next day, a size-reduced gelatine capsule was inserted into each test animal via a stomach probe together with a little water containing sodium chloride. After 3, 6, 12, 24 and 48 h, blood was taken from the animals and the content of radioactive cholesterol was determined. The results, which represent the mean value of the measurements of 10 test animals, are set out in Table 2. The figures relating to the reduction in radioactivity are based on a blank group of test animals which were only given gelatine capsules containing 20% by weight of vitamin E and a corresponding quantity of radioactively marked cholesterol. Examples 1 and 2 correspond to the invention, Examples C1 and C2 are intended for comparison.

Take `CC[C@H](CC[C@@H](C)[C@H]1CC[C@H]2[C@@H]3CC[C@H]4C[C@@H](O)CC[C@]4(C)[C@H]3CC[C@]12C)C(C)C` [Example C1, β-Sitostanol]: the “Radioactivity After 3 h” value is 93 %-rel, the “Radioactivity After 6 h” value is 83 %-rel, the “Radioactivity After 12 h” value is 75 %-rel and the “Radioactivity After 24 h” value was found to be 50 %-rel. Also, the “Radioactivity After 48 h” value was 32 %-rel.

On to `CCCCCCCCCCCCCCCCCC(=O)O[C@H]1CC[C@@]2(C)[C@@H](CC[C@@H]3[C@@H]2CC[C@]2(C)[C@@H]([C@H](C)CC[C@@H](CC)C(C)C)CC[C@@H]32)C1` [Example C2, β-Sitostanyl stearate], for which the “Radioactivity After 3 h” value was 90 %-rel, the “Radioactivity After 6 h” value stood at 80 %-rel, the “Radioactivity After 12 h” value was found to be 71 %-rel and the “Radioactivity After 24 h” value worked out at 44 %-rel. Also, the “Radioactivity After 48 h” value came out at 26 %-rel.

These data come from patent US6352737B1, “Use of nanoscale sterols and sterol esters” (Cognis Deutschland GmbH, priority 1999, dated 2002).
